Tests used:
[1] = tested on: ANGPTL3 protein; test: Example 7: serum ANGPTL3 protein by ELISA in mice; format: in vivo, C57bl/6 mice; set-up: key: ratio: (level/pre-treatment day -1 level) ÷ mean of D5W control group
Protocol: (§1) To further assess the in vivo activity of additional ANGPTL3 RNAi agents that are designed to target position 304 on the ANGPTL3 gene, six- to eight-week-old female C57bl/6 mice were used. Pre-dose serum samples were taken at day −1 after a four hour fast. At day 1, each mouse was given a single subcutaneous administration of 200 μl containing 0.5 mg/kg (mpk) of an ANGPTL3 RNAi agent in D5W (dextrose in 5% water), or control (D5W) with no RNAi agent, according to the dosing groups recited in Table 31.
(§2) Each of the RNAi agents included a modified sequence and an N-acetyl-galactosamine-containing targeting ligand conjugated to the 5′ terminal end of the sense strand. (See Tables 3, 4, and 5 for modified sequences and targeting ligand structures). The injections were performed between the skin and muscle (i.e. subcutaneous injections) into the loose skin over the neck and shoulder area. Three (3) mice in each group were tested (n=3). Serum was collected on days 8, 15, 22, and 29. Mice were fasted for four hours prior to each collection. ANGPTL3 protein levels in serum were measured by ELISA assay (R&D Systems), according to the manufacturer's recommendations. Triglycerides, total cholesterol, high-density lipoprotein (HDL), and low-density lipoprotein (LDL) in serum were measured on a Cobas® Integra 400 (Roche Diagnostics), according to the manufacturer's recommendations.
(§3) The ANGPTL3 protein levels, triglyceride levels, total cholesterol levels, HDL levels, and LDL levels for each animal were normalized. For normalization, the level of ANGPTL3 protein, triglyceride, HDL, and total cholesterol, respectively, for each animal at a time point, was divided by the pre-treatment level of expression in that animal (in this case at day −1) to determine the ratio of expression “normalized to pre-treatment.” Expression at a specific time point was then normalized to the D5W control group by dividing the “normalized to pre-treatment” ratio for an individual animal by the mean “normalized to pretreatment” ratio of all mice in the D5W control group.

[2] = tested on: ANGPTL3 gene; test: Example 7: serum triglycerides in mice; format: in vivo, C57bl/6 mice; set-up: key: ratio: (level/pre-treatment day -1 level) ÷ mean of D5W control group
Protocol: as §1, §2, §3

[3] = tested on: ANGPTL3 gene; test: Example 7: serum total cholesterol in mice; format: in vivo, C57bl/6 mice; set-up: key: ratio: (level/pre-treatment day -1 level) ÷ mean of D5W control group
Protocol: as §1, §2, §3

[4] = tested on: ANGPTL3 gene; test: Example 7: serum HDL in mice; format: in vivo; set-up: key: ratio: (level/pre-treatment day -1 level) ÷ mean of D5W control group; details: 0.5 mg/kg single SC injection day 1, female C57bl/6 mice, n=3, ratio to D5W control
Protocol: as §1, §2, §3

[5] = tested on: ANGPTL3 gene; test: Example 7: serum LDL in mice; format: in vivo; set-up: key: ratio: (level/pre-treatment day -1 level) ÷ mean of D5W control group; details: 0.5 mg/kg single SC injection day 1, female C57bl/6 mice, n=3, ratio to D5W control
Protocol: as §1, §2, §3

[6] = tested on: ANGPTL3 protein; test: Example 9: serum ANGPTL3 protein by ELISA in cynomolgus monkeys; format: in vivo, cynomolgus macaque (Macaca fascicularis); details: for Average ANGPTL3 Protein Normalized to Pre-Treatment: 2.0 mg/kg single SC injection day 1, cynos, n=3
Protocol: (§4) Additional ANGPTL3 RNAi agents were evaluated in cynomolgus monkeys. On day 1, cynomolgus macaque (Macaca fascicularis) primates (also referred to herein as “cynos”) were administered a single subcutaneous injection of 0.3 mL/kg (approximately 2-3 mL volume, depending on animal mass) containing 2.0 mg/kg of an ANGPTL3 RNAi agent, which included either AD05488, AD05743, AD05775, or AD05841, each formulated in saline. […] ANGPTL3 RNAi agents AD05488, AD05743, and AD05775 included nucleotide sequences designed to target position 304 of the ANGPTL3 gene. ANGPTL3 RNAi agent AD05841 included nucleotide sequences designed to target position 1035 of the ANGPTL3 gene.
(§5) Three (3) cynos in each group were tested (n=3). Blood samples were drawn and serum samples were analyzed on days −14 (predose), −7 (predose), 1 (pre-dose), 8, 15, 22, 29, and 35. Cynos were fasted overnight prior to each collection. ANGPTL3 protein levels in serum were measured by ELISA assay (R&D Systems), according to the manufacturer's recommendations. Triglycerides, total cholesterol, high-density lipoprotein (HDL), and low-density lipoprotein (LDL) in serum were measured on a Cobas® Integra 400 (Roche Diagnostics), according to the manufacturer's recommendations.
(§6) The ANGPTL3 protein levels, triglyceride levels, total cholesterol levels, HDL levels, and LDL levels for each animal were normalized. For normalization, the level of ANGPTL3 protein, triglyceride, HDL, and total cholesterol, respectively, for each animal at a time point, was divided by the average pre-treatment level of expression in that animal (in this case at days −14, −7, and 1) to determine the ratio of expression “normalized to pre-treatment.”

[7] = tested on: ANGPTL3 gene; test: Example 9: serum triglycerides in cynomolgus monkeys; format: in vivo, cynomolgus macaque (Macaca fascicularis); details: 2.0 mg/kg single SC injection day 1, cynos, n=3
Protocol: as §4, §5, §6

[8] = tested on: ANGPTL3 gene; test: Example 9: serum total cholesterol in cynomolgus monkeys; format: in vivo, cynomolgus macaque (Macaca fascicularis); details: 2.0 mg/kg single SC injection day 1, cynos, n=3
Protocol: as §4, §5, §6

[9] = tested on: ANGPTL3 gene; test: Example 9: serum HDL in cynomolgus monkeys; format: in vivo, cynomolgus macaque (Macaca fascicularis); details: 2.0 mg/kg single SC injection day 1, cynos, n=3
Protocol: as §4, §5, §6

[10] = tested on: ANGPTL3 gene; test: Example 9: serum LDL in cynomolgus monkeys; format: in vivo, cynomolgus macaque (Macaca fascicularis); details: 2.0 mg/kg single SC injection day 1, cynos, n=3
Protocol: as §4, §5, §6

[11] = Day 8, 0.5 mg/kg single SC injection on day 1, n=3
[12] = Day 15, 0.5 mg/kg single SC injection on day 1, n=3
[13] = Day 22, 0.5 mg/kg single SC injection on day 1, n=3
[14] = Day 29, 0.5 mg/kg single SC injection on day 1, n=3

For “AD05775: RNAi agent duplex: antisense AM07235-AS, sense AM07608-SS (antisense UACUGAUCAAAUAUGUUGAGC; sense GCUCAACAUNUUUGAUCAGUA; (NAG37)s GalNAc ligand; RNAi agent antisense strand modified sequence; RNAi agent sense strand modified sequence; modified_base 10 n = 2′-O-methyl-2-aminoadenosine-3′-phosphate)”, the “Avg ANGPTL3, normalized to pre-treatment and control” value (“Avg ANGPTL3, normalized” for short) [1, 11] was 0.247, the “Avg ANGPTL3, normalized” value [1, 12] was 0.232 and the “Avg ANGPTL3, normalized” value [1, 13] was 0.218. For the same substance, the “Avg ANGPTL3, normalized” value [1, 14] was 0.300, the “Avg TG, normalized to pre-treatment and control” value (“Avg TG, normalized” below) [2, 11] was 0.837 and the “Avg TG, normalized” value [2, 12] was 0.610. For the same substance, the “Avg TG, normalized” value [2, 13] was 0.819, the “Avg TG, normalized” value [2, 14] was 0.885 and the “Avg Total Chol, normalized to pre-treatment and control” value (from here on “Avg Total Chol, normalized”) [3, 11] was 0.794. The “Avg Total Chol, normalized” value [3, 12] was 0.777, the “Avg Total Chol, normalized” value [3, 13] was 0.812 and the “Avg Total Chol, normalized” value [3, 14] was 1.108. For the same substance, the “Avg HDL, normalized to pre-treatment and control” value (shortened to “Avg HDL, normalized”) ([4]; Day 8) was 0.754, the “Avg HDL, normalized” value ([4]; Day 15) was 0.757 and the “Avg HDL, normalized” value ([4]; Day 22) was 0.736. The “Avg HDL, normalized” value ([4]; Day 29) was 1.069, the “Avg LDL, normalized to pre-treatment and control” value (“Avg LDL, normalized” for short) ([5]; Day 8) was 0.975 and the “Avg LDL, normalized” value ([5]; Day 15) was 0.918. For the same substance, the “Avg LDL, normalized” value ([5]; Day 22) was 1.095, the “Avg LDL, normalized” value ([5]; Day 29) was 1.534 and the “Average ANGPTL3 Protein Normalized to Pre-Treatment” value (“Average ANGPTL3 Protein Normalized” below) ([6]; Day 8) was 0.463. The “Average ANGPTL3 Protein Normalized” value ([6]; Day 15) was 0.352, the “Average ANGPTL3 Protein Normalized” value ([6]; Day 22) was 0.330 and the “Average ANGPTL3 Protein Normalized” value ([6]; Day 29) was 0.365. The “Average ANGPTL3 Protein Normalized” value ([6]; Day 35) was 0.379, the “reduction in ANGPTL3 protein compared to pre-treatment” value ([6]; each of the measured time points, single 2.0 mg/kg subcutaneous, cynomolgus monkeys) was “reduction” and the “Average Triglycerides Normalized to Pre-Treatment” value (“Average Triglycerides Normalized” below) ([7]; Day 8) was 0.466. The “Average Triglycerides Normalized” value ([7]; Day 15) was 0.427, the “Average Triglycerides Normalized” value ([7]; Day 22) was 0.552 and the “Average Triglycerides Normalized” value ([7]; Day 29) was 0.391. The “Average Triglycerides Normalized” value ([7]; Day 35) was 0.431, the “Average Total Cholesterol Normalized to Pre-Treatment” value (from here on “Average Total Cholesterol Normalized”) ([8]; Day 8) was 0.965 and the “Average Total Cholesterol Normalized” value ([8]; Day 15) was 0.811. For the same substance, the “Average Total Cholesterol Normalized” value ([8]; Day 22) was 0.811, the “Average Total Cholesterol Normalized” value ([8]; Day 29) was 0.813 and the “Average Total Cholesterol Normalized” value ([8]; Day 35) was 0.770. The “Average HDL Normalized to Pre-Treatment” value ([9]; Day 8) was 0.904, the “Average HDL Normalized to Pre-Treatment” value ([9]; Day 15) was 0.871 and the “Average HDL Normalized to Pre-Treatment” value ([9]; Day 22) was 0.737. The “Average HDL Normalized to Pre-Treatment” value ([9]; Day 29) was 0.781, the “Average HDL Normalized to Pre-Treatment” value ([9]; Day 35) was 0.723 and the “Average LDL Normalized to Pre-Treatment” value ([10]; Day 8) was 1.134. The “Average LDL Normalized to Pre-Treatment” value ([10]; Day 15) was 0.909, the “Average LDL Normalized to Pre-Treatment” value ([10]; Day 22) was 1.089 and the “Average LDL Normalized to Pre-Treatment” value ([10]; Day 29) was 1.034. The “Average LDL Normalized to Pre-Treatment” value ([10]; Day 35) was 1.008.
